Laboratory results taken from PubChem BioAssay AID2060508 (Molecular Pharmacology Branch, DTP, NCI, 2025).

What follows are compounds tested on 454973-116-R2-J3-PDC spheroids, viability, % test/control (assay: Anticancer human tumor 454973-116-R2-J3-PDC patient-derived pancreatic carcinoma cell line growth inhibition [GQUAD]). Details: curve of first compound; second compound 0.0316 µM; spheroids with HUVEC and MSC.
Description: DNA G-quadruplex Stabilizer Agents in Combinations in Complex Spheroids
A high-throughput screen of multi-cell type tumor spheroids was designed to identify active combinations of DNA G-quadruplex stabilizer agents and targeted small molecules. Complex spheroids include a stromal component modeled by human endothelial cells (HUVEC) and fibroblasts modeled by human mesenchymal stem cells (MSCs). The concentration ranges selected for each drug and investigational agent were based upon clinically achievable concentrations if the clinical Cmax of the agent was known.
Compounds. The drugs and investigational agents: pidnarulex (CX-5461; NSC782164), APTO-253 (NSC789042), BRACO-19 (NSC847499), peposertib (NSC802822), ceralasertib (NSC780249), elimusertib (NSC800525), camonsertib (NSC841442), AZD-1390 (NSC803789), olaparib (NSC753686), talazoparib (NSC767125), ART-558 (NSC835418), sotorasib (NSC818433), MRTX-1133 (NSC836407), SN-38 (NSC673596), topotecan (NSC609699), etoposide (NSC141540), doxorubicin (NSC123127), gemcitabine (NSC613327), 5-fluorouracil (NSC19893), paclitaxel (NSC125973), vemurafenib (NSC761431), panobinostat (NSC761190), R-306465 (JNJ-16241199; NSC773264), adavosertib (NSC754352), TP-3654 (NSC805149), carboplatin (NSC241240), KSQ-4279 (NSC840948), and staurosporine (NSC755774) were obtained from the National Cancer Institute (NCI) Developmental Therapeutics Program Chemical Repository (34). The FDA-approved anticancer drug set is available from the NCI Developmental Therapeutics Program. […] The stock solutions were prepared in dimethyl sulfoxide (DMSO, Sigma-Aldrich, St. Louis, MO, cat. D2650) at 800-fold the tested concentration and stored at -70 degrees C prior to their use. All drugs and investigational agents were tested over a range starting from a high concentration at or near the clinical Cmax and decreasing in half-log increments. If the clinical Cmax for an agent had not been determined, the highest concentration tested was 10 microM.
2.3 Cell Culture. All cells were maintained in an incubator at 37 degrees C and 5% CO2 with 95% humidity. The PDC lines were cultured according to standard operating procedures established by the NCI PDMR. All PDCs were thawed and cultured in Matrigel-coated flasks prepared with a working solution of 1X Ham's F-12 nutrient mix, without supplementation (Invitrogen, cat. 11765054), 100 U/mL penicillin-streptomycin (Invitrogen, cat. 15140122), and 2.5% Matrigel (Corning Inc., cat. 354248) for the first three passages. The 857933-349-R-J2-PDC line was cultured in 6C/Colon 1B media, which includes advanced DMEM/F-12 (Thermo Fisher Scientific, cat. 12634028), 10 mM HEPES (Thermo Fisher Scientific, cat. 15630080), 1X GlutaMAX supplement (Thermo Fisher Scientific, cat. 35050061), 0.1 mg/mL primocin (InvivoGen, cat. ant-pm-2), 10% defined fetal bovine serum, heat inactivated (HyClone Laboratories Inc., cat. SH30070.03HI), 50% L-WRN conditioned media (ATCC, cat. CRL-3276), 1.25 mM N-Acetyl-L-cysteine (Sigma-Aldrich, cat. A9165), 10 mM nicotinamide (Sigma-Aldrich, cat. N0636), 1X B-27 supplement (Thermo Fisher Scientific, cat. 17504044), 1X N-2 supplement (Thermo Fisher Scientific, cat. 17502048), 10 microM Y-27632 dihydrochloride (Tocris Bioscience, cat. 1254), and 50 ng/mL human EGF recombinant protein (Thermo Fisher Scientific, cat. PHG0311). The 485176-168-R4-J1-PDC line was cultured in Panc media, which includes all 6C/Colon 1B media components plus 100 ng/mL human FGF-10 (Thermo Fisher Scientific, cat. 100-26), 500 nM SB-431542 (Selleckchem, cat. S1067), and gastrin (Tocris, cat. 3006).
[…]
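Also: spheroids exposed to compounds for seven days.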

How did the IC50 turn out when `C=CCn1c(=O)c2cnc(Nc3ccc(N4CCN(C)CC4)cc3)nc2n1-c1cccc(C(C)(C)O)n1` + CN(C)c1ccc(Nc2c3ccc(NC(=O)CCN4CCCC4)cc3nc3cc(NC(=O)CCN4CCCC4)ccc23)cc1 was run?
The IC50 was 433 nM.

For `CC1COCCN1c1cc(C2(O)CC3CCC(C2)O3)c2cnn(-c3ccn[nH]3)c2n1` (stereo unspecified) + Cc1[nH]c2ccc(F)cc2c1-c1nc2c3cccnc3c3ncccc3c2[nH]1, which IC50 is on record?
The IC50 was 155 nM.

`O=C(c1cc(Cc2n[nH]c(=O)c3ccccc23)ccc1F)N1CCN(C(=O)C2CC2)CC1` + Cc1[nH]c2ccc(F)cc2c1-c1nc2c3cccnc3c3ncccc3c2[nH]1 was tested. Which IC50 did it give?
The IC50 was > 10000 nM.

Same assay, conditions: curve of first compound; second compound 0.1 µM; spheroids with HUVEC and MSC

For `C=CCn1c(=O)c2cnc(Nc3ccc(N4CCN(C)CC4)cc3)nc2n1-c1cccc(C(C)(C)O)n1` + CN(C)c1ccc(Nc2c3ccc(NC(=O)CCN4CCCC4)cc3nc3cc(NC(=O)CCN4CCCC4)ccc23)cc1, which IC50 is on record?
The IC50 was 350 nM.

For `CC1COCCN1c1cc(C2(O)CC3CCC(C2)O3)c2cnn(-c3ccn[nH]3)c2n1` (stereo unspecified) + Cc1[nH]c2ccc(F)cc2c1-c1nc2c3cccnc3c3ncccc3c2[nH]1, which IC50 is on record?
The IC50 was 141 nM.

How did the IC50 turn out when `O=C(c1cc(Cc2n[nH]c(=O)c3ccccc23)ccc1F)N1CCN(C(=O)C2CC2)CC1` + Cc1[nH]c2ccc(F)cc2c1-c1nc2c3cccnc3c3ncccc3c2[nH]1 was run?
The IC50 was > 10000 nM.

Same assay, conditions: curve of first compound; second compound 0.316 µM; spheroids with HUVEC and MSC

With `C=CCn1c(=O)c2cnc(Nc3ccc(N4CCN(C)CC4)cc3)nc2n1-c1cccc(C(C)(C)O)n1` + CN(C)c1ccc(Nc2c3ccc(NC(=O)CCN4CCCC4)cc3nc3cc(NC(=O)CCN4CCCC4)ccc23)cc1 as the compound, how does the IC50 read?
The IC50 was 399 nM.

`CC1COCCN1c1cc(C2(O)CC3CCC(C2)O3)c2cnn(-c3ccn[nH]3)c2n1` (stereo unspecified) + Cc1[nH]c2ccc(F)cc2c1-c1nc2c3cccnc3c3ncccc3c2[nH]1 was tested. Which IC50 did it give?
Its IC50 is 163 nM.

For `O=C(c1cc(Cc2n[nH]c(=O)c3ccccc23)ccc1F)N1CCN(C(=O)C2CC2)CC1` + Cc1[nH]c2ccc(F)cc2c1-c1nc2c3cccnc3c3ncccc3c2[nH]1, which IC50 is on record?
Its IC50 is > 10000 nM.

Same assay, conditions: curve of first compound; second compound 1 µM; spheroids with HUVEC and MSC

For `C=CCn1c(=O)c2cnc(Nc3ccc(N4CCN(C)CC4)cc3)nc2n1-c1cccc(C(C)(C)O)n1` + CN(C)c1ccc(Nc2c3ccc(NC(=O)CCN4CCCC4)cc3nc3cc(NC(=O)CCN4CCCC4)ccc23)cc1, which IC50 is on record?
Its IC50 is 365 nM.

How did the IC50 turn out when `CC1COCCN1c1cc(C2(O)CC3CCC(C2)O3)c2cnn(-c3ccn[nH]3)c2n1` (stereo unspecified) + Cc1[nH]c2ccc(F)cc2c1-c1nc2c3cccnc3c3ncccc3c2[nH]1 was run?
Its IC50 is 140 nM.

For `O=C(c1cc(Cc2n[nH]c(=O)c3ccccc23)ccc1F)N1CCN(C(=O)C2CC2)CC1` + Cc1[nH]c2ccc(F)cc2c1-c1nc2c3cccnc3c3ncccc3c2[nH]1, which IC50 is on record?
Its IC50 is > 10000 nM.

Same assay, conditions: curve of first compound; second compound 3.16 µM; spheroids with HUVEC and MSC

For `C=CCn1c(=O)c2cnc(Nc3ccc(N4CCN(C)CC4)cc3)nc2n1-c1cccc(C(C)(C)O)n1` + CN(C)c1ccc(Nc2c3ccc(NC(=O)CCN4CCCC4)cc3nc3cc(NC(=O)CCN4CCCC4)ccc23)cc1, which IC50 is on record?
Its IC50 is 423 nM.

With `CC1COCCN1c1cc(C2(O)CC3CCC(C2)O3)c2cnn(-c3ccn[nH]3)c2n1` (stereo unspecified) + Cc1[nH]c2ccc(F)cc2c1-c1nc2c3cccnc3c3ncccc3c2[nH]1 as the compound, how does the IC50 read?
The IC50 was 143 nM.

Which IC50 does the source give for `O=C(c1cc(Cc2n[nH]c(=O)c3ccccc23)ccc1F)N1CCN(C(=O)C2CC2)CC1` + Cc1[nH]c2ccc(F)cc2c1-c1nc2c3cccnc3c3ncccc3c2[nH]1 here?
Its IC50 is > 10000 nM.

Same assay, conditions: curve of first compound; second compound 10 µM; spheroids with HUVEC and MSC

Which IC50 does the source give for `C=CCn1c(=O)c2cnc(Nc3ccc(N4CCN(C)CC4)cc3)nc2n1-c1cccc(C(C)(C)O)n1` + CN(C)c1ccc(Nc2c3ccc(NC(=O)CCN4CCCC4)cc3nc3cc(NC(=O)CCN4CCCC4)ccc23)cc1 here?
Its IC50 is 431 nM.

Which IC50 does the source give for `CC1COCCN1c1cc(C2(O)CC3CCC(C2)O3)c2cnn(-c3ccn[nH]3)c2n1` (stereo unspecified) + Cc1[nH]c2ccc(F)cc2c1-c1nc2c3cccnc3c3ncccc3c2[nH]1 here?
Its IC50 is 115 nM.

`O=C(c1cc(Cc2n[nH]c(=O)c3ccccc23)ccc1F)N1CCN(C(=O)C2CC2)CC1` + Cc1[nH]c2ccc(F)cc2c1-c1nc2c3cccnc3c3ncccc3c2[nH]1 was tested. Which IC50 did it give?
The IC50 was > 10000 nM.

Same assay, conditions: second compound 0.0316 µM; first compound 0.0316 µM; stronger effect = lower value; spheroids with HUVEC and MSC

Which viability, T/C does the source give for `C=CCn1c(=O)c2cnc(Nc3ccc(N4CCN(C)CC4)cc3)nc2n1-c1cccc(C(C)(C)O)n1` + CN(C)c1ccc(Nc2c3ccc(NC(=O)CCN4CCCC4)cc3nc3cc(NC(=O)CCN4CCCC4)ccc23)cc1 here?
The viability, T/C was 109%.

With `CC1COCCN1c1cc(C2(O)CC3CCC(C2)O3)c2cnn(-c3ccn[nH]3)c2n1` (stereo unspecified) + Cc1[nH]c2ccc(F)cc2c1-c1nc2c3cccnc3c3ncccc3c2[nH]1 as the compound, how does the viability, T/C read?
The viability, T/C was 95.9%.

For `O=C(c1cc(Cc2n[nH]c(=O)c3ccccc23)ccc1F)N1CCN(C(=O)C2CC2)CC1` + Cc1[nH]c2ccc(F)cc2c1-c1nc2c3cccnc3c3ncccc3c2[nH]1, which viability, T/C is on record?
Its viability, T/C is 98.5%.

Same assay, conditions: second compound 0.0316 µM; first compound 0.1 µM; stronger effect = lower value; spheroids with HUVEC and MSC

With `C=CCn1c(=O)c2cnc(Nc3ccc(N4CCN(C)CC4)cc3)nc2n1-c1cccc(C(C)(C)O)n1` + CN(C)c1ccc(Nc2c3ccc(NC(=O)CCN4CCCC4)cc3nc3cc(NC(=O)CCN4CCCC4)ccc23)cc1 as the compound, how does the viability, T/C read?
Its viability, T/C is 89.4%.

With `CC1COCCN1c1cc(C2(O)CC3CCC(C2)O3)c2cnn(-c3ccn[nH]3)c2n1` (stereo unspecified) + Cc1[nH]c2ccc(F)cc2c1-c1nc2c3cccnc3c3ncccc3c2[nH]1 as the compound, how does the viability, T/C read?
The viability, T/C was 62.1%.

Which viability, T/C does the source give for `O=C(c1cc(Cc2n[nH]c(=O)c3ccccc23)ccc1F)N1CCN(C(=O)C2CC2)CC1` + Cc1[nH]c2ccc(F)cc2c1-c1nc2c3cccnc3c3ncccc3c2[nH]1 here?
Its viability, T/C is 89.7%.

Same assay, conditions: second compound 0.0316 µM; first compound 0.316 µM; stronger effect = lower value; spheroids with HUVEC and MSC

How did the viability, T/C turn out when `C=CCn1c(=O)c2cnc(Nc3ccc(N4CCN(C)CC4)cc3)nc2n1-c1cccc(C(C)(C)O)n1` + CN(C)c1ccc(Nc2c3ccc(NC(=O)CCN4CCCC4)cc3nc3cc(NC(=O)CCN4CCCC4)ccc23)cc1 was run?
The viability, T/C was 65.3%.

`CC1COCCN1c1cc(C2(O)CC3CCC(C2)O3)c2cnn(-c3ccn[nH]3)c2n1` (stereo unspecified) + Cc1[nH]c2ccc(F)cc2c1-c1nc2c3cccnc3c3ncccc3c2[nH]1 was tested. Which viability, T/C did it give?
Its viability, T/C is 29.9%.

With `O=C(c1cc(Cc2n[nH]c(=O)c3ccccc23)ccc1F)N1CCN(C(=O)C2CC2)CC1` + Cc1[nH]c2ccc(F)cc2c1-c1nc2c3cccnc3c3ncccc3c2[nH]1 as the compound, how does the viability, T/C read?
Its viability, T/C is 101%.

Same assay, conditions: second compound 0.0316 µM; first compound 1 µM; stronger effect = lower value; spheroids with HUVEC and MSC

With `C=CCn1c(=O)c2cnc(Nc3ccc(N4CCN(C)CC4)cc3)nc2n1-c1cccc(C(C)(C)O)n1` + CN(C)c1ccc(Nc2c3ccc(NC(=O)CCN4CCCC4)cc3nc3cc(NC(=O)CCN4CCCC4)ccc23)cc1 as the compound, how does the viability, T/C read?
Its viability, T/C is 16.2%.

How did the viability, T/C turn out when `CC1COCCN1c1cc(C2(O)CC3CCC(C2)O3)c2cnn(-c3ccn[nH]3)c2n1` (stereo unspecified) + Cc1[nH]c2ccc(F)cc2c1-c1nc2c3cccnc3c3ncccc3c2[nH]1 was run?
The viability, T/C was 21.7%.

With `O=C(c1cc(Cc2n[nH]c(=O)c3ccccc23)ccc1F)N1CCN(C(=O)C2CC2)CC1` + Cc1[nH]c2ccc(F)cc2c1-c1nc2c3cccnc3c3ncccc3c2[nH]1 as the compound, how does the viability, T/C read?
The viability, T/C was 100%.

Same assay, conditions: second compound 0.0316 µM; first compound 3.16 µM; stronger effect = lower value; spheroids with HUVEC and MSC

`C=CCn1c(=O)c2cnc(Nc3ccc(N4CCN(C)CC4)cc3)nc2n1-c1cccc(C(C)(C)O)n1` + CN(C)c1ccc(Nc2c3ccc(NC(=O)CCN4CCCC4)cc3nc3cc(NC(=O)CCN4CCCC4)ccc23)cc1 was tested. Which viability, T/C did it give?
The viability, T/C was 7.05%.
